# System: HBV
# Assay: HBV-DNA Antiviral Assay Using HepG2.2.15 Cells (extracellular HBV DNA by qPCR)
# Format: cell-based, hepatitis B virus (HBV)
# Settings: Hepatitis B virus; HBV DNA inhibition, HepG2.2.15 cells, extracellular HBV DNA by qPCR; read-out: EC50
# Description: The following assay procedure describes the HBV antiviral assay. This assay uses HepG2.2.15 cells, which have been transfected with HBV genome, and extracellular HBV DNA quantification as endpoint. Cell viability is assessed in parallel by measuring the intracellular ATP content using the CellTiter-Glo® reagent from Promega.
# On day 0, HepG2.2.15 cells were seeded in 96-well plates at a density of 6.0×10^4 cells/well (0.1 mL/well). The cells were incubated at 37° C. and 5% CO2.
# On day 1, the test articles were diluted and added to cell culture wells (8 concentrations, 4-fold dilution, in duplicate). GLS4, Tenofovir and Sorafenib were used as reference compounds. 100 μL of culture medium containing the compounds was added to the plate, and the final total volume per well was 200 μL. The final concentration of DMSO in the culture medium was 0.5%. The plate map of compound treatment is shown below. The cells were cultured at 37° C. and 5% CO2 for 3 days.
# On day 4, the plates were refreshed with culture media with compounds.
# On day 7, cell viability was assessed using the CellTiter-Glo®, and the cell culture supernatants were collected for determination of HBV DNA by qPCR.
# Extracellular DNA was isolated with QIAamp 96 DNA Blood Kit per the manufacturer's manual. HBV DNA was then quantified by qPCR with HBV specific primers and probes as specified in Table 1 using the FastStart Universal MasterMix from Roche on an ABI-7900HT. The PCR cycle program consisted of 95° C. for 10 min, followed by 40 cycles at 95° C. for 15 sec and 60° C. for 1 min.
# A DNA standard was prepared by dilution of the pAAV2 HBV1.3 plasmid with concentrations ranging from 10 to 1×10^7 copies/uL and used to generate a standard curve by plotting Ct value vs. the concentration of the HBV plasmid DNA standard. The quantity of HBV DNA in each sample was determined by interpolating from the standard curve.
# Cell viability was calculated as follows: % Cell viability=(luminescence value of test sample−average luminescence value of blank)/(average luminescence value of 0.5% DMSO control−average luminescence of blank)×100%. HBV DNA inhibition was calculated as follows: 100−(HBV DNA copy number of test sample−HBV DNA copy number of ETV)/HBV DNA copy number of 0.5% DMSO control−HBV DNA copy number of ETV)×100%. The CC50, EC50 and EC90 values were determined by dose-response curves fitted by GraphPad Prism using “log (agonist) vs. response—Variable slope”.
row,Structure (SMILES),EC50
1,"C#C[C@@H](CO)NC(=O)C(=O)c1c(C)c(C(=O)Nc2ccc(F)c(C#N)c2)n(C)c1C (single isomer, unassigned) [Compound 31a]",1 to 10 nM
2,"C#C[C@H](CO)NC(=O)C(=O)c1c(C)c(C(=O)Nc2ccc(F)c(C#N)c2)n(C)c1C (single isomer, unassigned) [Compound 31b]",1 to 10 nM
3,"C#CCNC(=O)C(=O)c1c(C)c(C(=O)Nc2ccc(F)c(C(F)(F)F)c2)n(C)c1C [Compound 1, N-[4-fluoro-3-(trifluoromethyl)phenyl]-1,3,5-trimethyl-4-[2-oxo-2-(prop-2-ynylamino)acetyl]pyrrole-2-carboxamide]",1 to 10 nM
4,"C=CCNC(=O)C(=O)c1c(C)c(C(=O)Nc2ccc(F)c(C(F)(F)F)c2)n(C)c1C [Compound 2, 4-[2-(allylamino)-2-oxo-acetyl]-N-[4-fluoro-3-(trifluoromethyl)phenyl]-1,3,5-trimethyl-pyrrole-2-carboxamide]",1 to 10 nM
5,"C#CCNC(=O)C(=O)c1cc(C(=O)Nc2ccc(F)c(C#N)c2)n(C)c1 [Compound 3, N-(3-cyano-4-fluoro-phenyl)-1-methyl-4-[2-oxo-2-(prop-2-ynylamino)acetyl]pyrrole-2-carboxamide]",> 1000 nM
6,"C#CCNC(=O)C(=O)c1c(C)c(C(=O)Nc2ccnc(Br)c2F)n(C)c1C [Compound 4, N-(2-bromo-3-fluoro-4-pyridyl)-1,3,5-trimethyl-4-[2-oxo-2-(prop-2-ynylamino)acetyl]pyrrole-2-carboxamide]",1 to 10 nM
7,"C=CCNC(=O)C(=O)c1c(C)c(C(=O)Nc2ccnc(Br)c2F)n(C)c1C [Compound 5, 4-[2-(allylamino)-2-oxo-acetyl]-N-(2-bromo-3-fluoro-4-pyridy1)-1,3,5-trimethyl-pyrrole-2-carboxamide]",10 to 100 nM
8,"C#CCNC(=O)C(=O)c1cn(C)c(C(=O)Nc2ccc(F)c(C#N)c2)c1F [Compound 6, N-(3-cyano-4-fluoro-phenyl)-3-fluoro-1-methyl-4-[2-oxo-2-(prop-2-ynylamino)acetyl]pyrrole-2-carboxamide]",100 to 1000 nM
9,"C=CCNC(=O)C(=O)c1cn(C)c(C(=O)Nc2ccc(F)c(C#N)c2)c1F [Compound 7, 4-[2-(allylamino)-2-oxo-acetyl]-N-(3-cyano-4-fluoro-phenyl)-3-fluoro-1-methyl-pyrrole-2-carboxamide]",100 to 1000 nM
10,"C#CCNC(=O)C(=O)c1cn(C)c(C(=O)Nc2ccc(F)c(C#N)c2)c1C [Compound 8, N-(3-cyano-4-fluoro-phenyl)-1,3-dimethyl-4-[2-oxo-2-(prop-2-ynylamino)acetyl]pyrrole-2-carboxamide]",10 to 100 nM
11,"C#CCNC(=O)C(=O)c1c(C)c(C(=O)Nc2ccc(F)c(C#N)c2)n(C)c1Cl [Compound 9, 5-chloro-N-(3-cyano-4-fluoro-phenyl)-1,3-dimethyl-4-[2-oxo-2-(prop-2-ynylamino)acetyl]pyrrole-2-carboxamide]",1 to 10 nM
12,"C#CCNC(=O)C(=O)c1cn(C)c(C(=O)Nc2ccc(F)c(C#N)c2)c1Cl [Compound 10, 3-chloro-N-(3-cyano-4-fluoro-phenyl)-1-methyl-4-[2-oxo-2-(prop-2-ynylamino)acetyl]pyrrole-2-carboxamide]",10 to 100 nM
13,"C#CC(C)(C)NC(=O)C(=O)c1c(C)c(C(=O)Nc2ccc(F)c(C#N)c2)n(C)c1C [Compound 11, N-(3-cyano-4-fluoro-phenyl)-4-[2-(1,1-dimethylprop-2-ynylamino)-2-oxo-acetyl]-1,3,5-trimethyl-pyrrole-2-carboxamide]",< 1 nM
14,"C#CCNC(=O)C(=O)c1c(F)c(C(=O)Nc2ccc(F)c(C#N)c2)n(C)c1Cl [Compound 12, 5-chloro-N-(3-cyano-4-fluoro-phenyl)-3-fluoro-1-methyl-4-[2-oxo-2-(prop-2-ynylamino)acetyl]pyrrole-2-carboxamide]",100 to 1000 nM
15,"C#CCNC(=O)C(=O)c1c(F)c(C(=O)Nc2ccc(F)c(C#N)c2)n(C)c1C [Compound 13, N-(3-cyano-4-fluoro-phenyl)-3-fluoro-1,5-dimethyl-4-[2-oxo-2-(prop-2-ynylamino)acetyl]pyrrole-2-carboxamide]",1 to 10 nM
16,"C#CC1(NC(=O)C(=O)c2c(C)c(C(=O)Nc3ccc(F)c(C#N)c3)n(C)c2C)CC1 [Compound 14, N-(3-cyano-4-fluoro-phenyl)-4-[2-[(1-ethynylcyclopropyl)amino]-2-oxo-acetyl]-1,3,5-trimethyl-pyrrole-2-carboxamide]",< 1 nM
17,"C#CC1(NC(=O)C(=O)c2c(C)c(C(=O)Nc3ccc(F)c(C#N)c3)n(C)c2C)CCC1 [Compound 15, N-(3-cyano-4-fluoro-phenyl)-4-[2-[(1-ethynylcyclobutyl)amino]-2-oxo-acetyl]-1,3,5-trimethyl-pyrrole-2-carboxamide]",< 1 nM
18,"C#CCNC(=O)C(=O)c1c(Cl)c(C(=O)Nc2ccc(F)c(C#N)c2)n(C)c1Br [Compound 16, 5-bromo-3-chloro-N-(3-cyano-4-fluoro-phenyl)-1-methyl-4-[2-oxo-2-(prop-2-ynylamino)acetyl]pyrrole-2-carboxamide]",10 to 100 nM
19,"C#C[C@@H](C)NC(=O)C(=O)c1c(C)c(C(=O)Nc2ccc(F)c(C#N)c2)n(C)c1C [Compound 17a, N-(3-cyano-4-fluoro-phenyl)-1,3,5-trimethyl-4-[2-oxo-2-[[(1R)-1-methylprop-2-ynyl]amino]acetyl]pyrrole-2-carboxamide]",1 to 10 nM
20,"C#C[C@H](C)NC(=O)C(=O)c1c(C)c(C(=O)Nc2ccc(F)c(C#N)c2)n(C)c1C [Compound 17b, N-(3-cyano-4-fluoro-phenyl)-1,3,5-trimethyl-4-[2-oxo-2-[[(1S)-1-methylprop-2-ynyl]amino]acetyl]pyrrole-2-carboxamide]",1 to 10 nM
21,"C=CCNC(=O)C(=O)c1c(F)c(C(=O)Nc2ccc(F)c(C#N)c2)n(C)c1C [Compound 18, 4-[2-(allylamino)-2-oxo-acetyl]-N-(3-cyano-4-fluoro-phenyl)-3-fluoro-1,5-dimethyl-pyrrole-2-carboxamide]",1 to 10 nM
22,"Cc1c(C(=O)C(=O)NC2(c3c[nH]nn3)CC(F)(F)C2)c(C)n(C)c1C(=O)Nc1ccc(F)c(C#N)c1 [Compound 19, N-(3-cyano-4-fluoro-phenyl)-4-[2-[[3,3-difluoro-1-(1H-triazol-4-yl)cyclobutyl]amino]-2 oxo-acetyl]-1,3,5-trimethyl-pyrrole-2-carboxamide]",< 1 nM
23,"C#CCNC(=O)C(=O)c1c(F)c(C(=O)Nc2ccc(F)c(C#N)c2)n(C)c1Br [Compound 20, 5-bromo-N-(3-cyano-4-fluoro-phenyl)-3-fluoro-1-methyl-4-[2-oxo-2-(prop-2-ynylamino)acetyl]pyrrole-2-carboxamide]",10 to 100 nM
24,"C#CCNC(=O)C(=O)c1c(Cl)c(C(=O)Nc2ccc(F)c(C#N)c2)n(C)c1C [Compound 21, 3-chloro-N-(3-cyano-4-fluoro-phenyl)-1,5-dimethyl-4-[2-oxo-2-(prop-2-ynylamino)acetyl]pyrrole-2-carboxamide]",1 to 10 nM
25,"Cc1c(C(=O)C(=O)NCC#CC2CC2)c(C)n(C)c1C(=O)Nc1ccc(F)c(C#N)c1 [Compound 22, N-(3-cyano-4-fluoro-phenyl)-4-[2-(3-cyclopropylprop-2-ynylamino)-2-oxo-acetyl]-1,3,5-trimethyl-pyrrole-2-carboxamide]",1 to 10 nM
26,"C#C[C@H](NC(=O)C(=O)c1c(C)c(C(=O)Nc2ccc(F)c(C#N)c2)n(C)c1C)C1CC1 [Compound 23a, N-(3-cyano-4-fluoro-phenyl)-1,3,5-trimethyl-4-[2-oxo-2-[[(1R)-1-cyclopropylprop-2-ynyl]amino]acetyl]pyrrole-2-carboxamide]",< 1 nM
27,"C#C[C@@H](NC(=O)C(=O)c1c(C)c(C(=O)Nc2ccc(F)c(C#N)c2)n(C)c1C)C1CC1 [Compound 23b, N-(3-cyano-4-fluoro-phenyl)-1,3,5-trimethyl-4-[2-oxo-2-[[(1S)-1-cyclopropylprop-2-ynyl]amino]acetyl]pyrrole-2-carboxamide]",< 1 nM
28,"C#CC1(NC(=O)C(=O)c2c(C)c(C(=O)Nc3ccc(F)c(C#N)c3)n(C)c2C)CC(F)(F)C1 [Compound 24, N-(3-cyano-4-fluoro-phenyl)-4-[2-[(1-ethynyl-3,3-difluoro-cyclobutyl)amino]-2-oxo-acetyl]-1,3,5-trimethyl-pyrrole-2-carboxamide]",< 1 nM
29,"C#CCNC(=O)C(=O)c1cc(C(=O)Nc2ccc(F)c(C#N)c2)n(C)c1Cl [Compound 25, 5-chloro-N-(3-cyano-4-fluoro-phenyl)-1-methyl-4-[2-oxo-2-(prop-2-ynylamino)acetyl]pyrrole-2-carboxamide]",100 to 1000 nM
